For test [1], the system named is bone marrow-derived macrophages from nod1-deficient mice. The test is described as follows: Cytokine secretion assay (ELISA), bone marrow-derived macrophages from nod1-deficient mice. In kind it is cell-based, mouse. The conditions noted are these: 12 hr. As to the method: (§1) A), B), C) 3×10^5 bone marrow-derived macrophages from wild-type littermates (wt) and nod1-deficient mice were stimulated with 100 ng/ml of iE-DAP, MDP or dsRNA for 12 hr A), B). 0, 100 ng/ml Salmonella typhimurium LPS was used in the presence of 0, 1, 1000 ng/ml iE-DAP or 0, 0.1 1 μM immunostimulatory CpG as indicated for 12 hr C) The concentration of TNF-α (a) and IL-6 (b,c) were determined by ELISA using specific antibodies. Values represent the mean of normalized data±S.D. of triplicate cultures.
Reagents. LPS from S. typhimurium, intact and alkaline-detoxified LPS from E. coli O55:B5 as well as purified lipid A preparations of E. coli F583, MDP, DAP and dsRNA were obtained from Sigma-Aldrich (St. Louis, Mo.). PGN from S. aureus was from Fluka-Chemie (Buchs, Germany). Palmitoyl-Cys ((RS)-2,3-di(palmitoyloxy)-propyl)-Ala-Gly) (sBLP), was obtained from Bachem (Torrance, Calif.). The tetrameric form of the disaccharide dipeptide was described previously (Inohara et al., J. Biol. Chem. 278:5509 [2003]). iE-DAP and iQ-DAP, M3P and M4P were synthesized as described (Kitaura et al., J. Med. Chem. 25:335 [1982]) with small modification. Purification of PGN from B. subtilis 168 and C. flaccumfaciens with hydrolases, Cellosyl or recombinant AtlE (amidase domain) and the fractionation and purification of reduced B. subtilis PGN digested with Cellosyl were performed as previously described (Heilman et al., Mol. Microbiol. 24:1013 [1997]; Atrih et al., J. Bact. 181:3956 [1999]). Removal of proteins and reduction of LPS fraction. E. coli O55:B5 LPS (Sigma) was treated with proteinase K at 37° C. for 12 hr to digest contaminating proteins. To eliminate lipoproteins, LPS was subjected to modified phenol extraction with deoxycholate-containing phenol as described (Hirschfeld et al., J. Immunol. 165:618 [2000]). […] The amino acid composition of E. coli O55:B5 LPS was determined using AccQ·Tag amino acid analysis system (Waters, Milford, Mass.) after hydrolysis at 110° C. for 24 hr. […]

The test system of test [2] is bone marrow-derived macrophages from wild-type mice. Briefly: Cytokine secretion assay (ELISA), bone marrow-derived macrophages from wild-type mice. Format: cell-based, mouse. The conditions noted are these: 12 hr; for secretion of IL-6 / secretion of TNF-α: 100 ng/ml. As to the method:
as §1
Reagents. LPS from S. typhimurium, intact and alkaline-detoxified LPS from E. coli O55:B5 as well as purified lipid A preparations of E. coli F583, MDP, DAP and dsRNA were obtained from Sigma-Aldrich (St. Louis, Mo.). PGN from S. aureus was from Fluka-Chemie (Buchs, Germany). Palmitoyl-Cys ((RS)-2,3-di(palmitoyloxy)-propyl)-Ala-Gly) (sBLP), was obtained from Bachem (Torrance, Calif.). The tetrameric form of the disaccharide dipeptide was described previously (Inohara et al., J. Biol. Chem. 278:5509 [2003]). iE-DAP and iQ-DAP, M3P and M4P were synthesized as described (Kitaura et al., J. Med. Chem. 25:335 [1982]) with small modification. Purification of PGN from B. subtilis 168 and C. flaccumfaciens with hydrolases, Cellosyl or recombinant AtlE (amidase domain) and the fractionation and purification of reduced B. subtilis PGN digested with Cellosyl were performed as previously described (Heilman et al., Mol. Microbiol. 24:1013 [1997]; Atrih et al., J. Bact. 181:3956 [1999]). Removal of proteins and reduction of LPS fraction. E. coli O55:B5 LPS (Sigma) was treated with proteinase K at 37° C. for 12 hr to digest contaminating proteins. To eliminate lipoproteins, LPS was subjected to modified phenol extraction with deoxycholate-containing phenol as described (Hirschfeld et al., J. Immunol. 165:618 [2000]). For reduction of carboxyl group in the LPS, the LPS was treated with 1-ethyl-3-(3-dimethylaminopropyl) carbodiimide and then reduced with NaBH4 as described (Taylor et al., Biochemistry 11:1383 [1972]). Preparation of E. coli extract. E. coli K-12 mutants were all based on the SØ864 genetic background (lacZ trp upp relA rpsL) (Neuhard and Thomassen, J. Bacteriol. 126:999). SØ874 carries a large chromosomal deletion removing the gene clusters for the biosynthesis of CA capsule and O-antigen. CLM5 is a derivative of SØ874 with a transposon insertion in the wecC gene that blocks the synthesis of ECA (Marolda et al., J. Bacteriol. 177:5539[1995]). FAM5 is a derivative of SØ874 carrying a deletion that eliminates the incorporation of heptose in the LPS core. Extracts were prepared from all of these E. coli K-12 strains and also from another E. coli K-12 strain, LCD27 YA21-6 (Obtained from Dr. Arisaka, Tokyo Institute of Technology). Bacteria were cultured overnight at 37° C. in Luria broth, killed by treatment with acetone followed by vacuum drying and finally resuspended in 10 mM HEPES. The extract was treated with 1M NaOH at 55° C. for 12 hr and neutralized with 1M HEPES (pH 7.4). The soluble fraction after centrifugation and filtration with 0.22 μm filter was applied to SUPEROSE 12 gel filtration column chromatography. Partial purification of NOD1-stimulatory molecules from E. coli and composition analyses. The amino acid composition of E. coli O55:B5 LPS was determined using AccQ·Tag amino acid analysis system (Waters, Milford, Mass.) after hydrolysis at 110° C. for 24 hr. […]

Where [3] appears, read: macrophages lacking NOD1, 100 ng/ml.

For MurNAc-L-Ala-γ-D-Gln [MDP], in test [1] (setting [3]), the “secretion of IL-6” value was “responded” and the “secretion of TNF-α” value was “responded”. In test [2], the “secretion of IL-6” value was “induced the secretion” and the “secretion of TNF-α” value was “induced the secretion”.

Take “γ-D-glutamy-meso-diaminopimelic acid [iE-DAP]”: the “enhancement of the secretion of IL-6 induced by LPS” value is on record as “this effect was impaired” in test [1] (nod1 −/− macrophages, 100 ng/ml Salmonella typhimurium LPS) and “enhanced the secretion of IL-6 induced by LPS” in test [2] (100 ng/ml Salmonella typhimurium LPS). The “secretion of IL-6” value in test [2] was “induced the secretion”. Moreover, the “secretion of TNF-α” value in test [2] is “induced the secretion”.

The record behind these values is patent publication US7244557B2, “Method of screening modulators of Nod1 signaling” (Regents of the University of Michigan, priority 2003, dated 2007).
